# According to paper PMC9688344, “[^225Ac]Ac-SibuDAB for Targeted Alpha Therapy of Prostate Cancer: Preclinical Evaluation and Comparison with [^225Ac]Ac-PSMA-617” (Cancers, 2022):
# pKd: −log10 of the molar value.
# Experiments:
# [1] = test system: PC3-PIP/flu tumor-bearing mice; assay: Biodistribution studies; format: in vivo, BALB/c nude mice
# [2] = test system: PSMA-negative PC-3 flu cells; assay: Cell uptake in PSMA-negative cells; format: cell-based
# [3] = Radioligand integrity by thin-layer chromatography; format: physicochemical; conditions: over a period of 48 h
# Procedure: The PSMA ligands used in this study were synthesized using solid-phase chemistry methods as previously reported. The labeling of the PSMA ligands with actinium-225 was performed at ITM Medical Isotopes GmbH, Munich, Germany (Supplementary Material: Section S1). The radioligands (~50 kBq/nmol; ~0.5 MBq/mL) were shipped to the Paul Scherrer Institute (PSI) overnight followed by assessing their integrity using thin-layer chromatography. […] Depending on the experiment, the molar activity of the radioligands was adjusted by adding unlabeled ligand and the final formulation was prepared by adding vehicle (saline with 0.05% bovine serum albumin (BSA)) to obtain the desired activity concentration. Radiolabeling of SibuDAB with lutetium-177 (5–10 MBq/nmol) was performed as previously reported.
# [4] = test system: PSMA-positive PC-3 PIP cells; assay: Cell uptake and internalization; format: cell-based; conditions: 4 h incubation; % of total added activity
# [5] = PBS/n-octanol distribution coefficient (logD); format: physicochemical; conditions: PBS pH 7.4/n-octanol
# [6] = target: T1, PSMA (Homo sapiens, UniProt Q04609); assay: PSMA-binding affinity (KD values) on PC-3 PIP cells; conditions: on ice
# T1 construct: expressed in transfected cells; host or cells: PC-3 PIP prostate cancer cells (transduced to express PSMA), provided by Prof; Dr. Martin Pomper, Johns Hopkins University
# T1 sequence (Q04609 whole entry): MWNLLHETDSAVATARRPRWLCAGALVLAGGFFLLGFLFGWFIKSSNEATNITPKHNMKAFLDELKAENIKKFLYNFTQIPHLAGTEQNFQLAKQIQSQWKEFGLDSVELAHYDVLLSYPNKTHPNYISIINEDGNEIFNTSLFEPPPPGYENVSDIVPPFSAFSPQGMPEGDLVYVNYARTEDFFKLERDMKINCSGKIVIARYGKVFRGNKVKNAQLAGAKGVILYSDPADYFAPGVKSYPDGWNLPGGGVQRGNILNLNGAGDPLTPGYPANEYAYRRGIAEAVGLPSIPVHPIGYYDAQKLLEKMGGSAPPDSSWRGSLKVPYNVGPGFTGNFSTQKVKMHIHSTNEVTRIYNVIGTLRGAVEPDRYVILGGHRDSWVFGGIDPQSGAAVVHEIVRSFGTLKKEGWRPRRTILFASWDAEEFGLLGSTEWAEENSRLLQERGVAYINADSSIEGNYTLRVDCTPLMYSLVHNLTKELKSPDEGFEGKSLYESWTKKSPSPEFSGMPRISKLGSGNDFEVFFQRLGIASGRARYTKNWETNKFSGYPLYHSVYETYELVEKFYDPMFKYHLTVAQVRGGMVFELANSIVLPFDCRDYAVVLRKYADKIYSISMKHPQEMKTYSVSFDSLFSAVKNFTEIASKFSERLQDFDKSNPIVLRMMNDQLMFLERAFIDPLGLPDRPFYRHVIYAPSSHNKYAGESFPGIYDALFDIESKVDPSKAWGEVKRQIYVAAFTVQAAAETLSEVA
smiles,measurement,setting,value
O=C([O-])CN1CCN(CC(=O)[O-])CCN(CC(=O)NCC2CCC(C(=O)NC(Cc3ccc4ccccc4c3)C(=O)NCCCCC(NC(=O)NC(CCC(=O)O)C(=O)O)C(=O)O)CC2)CCN(CC(=O)[O-])CC1.[225Ac+3] (stereo not drawn) [[^225Ac]Ac-PSMA-617],"Blood, accumulated activity",[1]; 1 h p.i.,0.62 ± 0.12 % IA/g
same,"Bone, accumulated activity",[1]; 1 h p.i.,0.46 ± 0.13 % IA/g
same,"Heart, accumulated activity",[1]; 1 h p.i.,0.35 ± 0.09 % IA/g
same,"Intestines, accumulated activity",[1]; 1 h p.i.,0.29 ± 0.12 % IA/g
same,"Kidneys, accumulated activity",[1]; 1 h p.i.,12 ± 3 % IA/g
same,"Liver, accumulated activity",[1]; 1 h p.i.,0.46 ± 0.10 % IA/g
same,"Lung, accumulated activity",[1]; 1 h p.i.,0.76 ± 0.23 % IA/g
same,"Muscle, accumulated activity",[1]; 1 h p.i.,0.18 ± 0.06 % IA/g
same,"PC-3 PIP tumor, accumulated activity",[1]; 1 h p.i.,46 ± 13 % IA/g
same,"PC-3 flu tumor, accumulated activity",[1]; 1 h p.i.,0.30 ± 0.06 % IA/g
same,"Salivary glands, accumulated activity",[1]; 1 h p.i.,0.30 ± 0.06 % IA/g
same,"Spleen, accumulated activity",[1]; 1 h p.i.,0.68 ± 0.09 % IA/g
same,"Stomach, accumulated activity",[1]; 1 h p.i.,0.37 ± 0.14 % IA/g
same,Tumor-to-blood ratio,[1]; 1 h p.i.,73 ± 7
same,Tumor-to-kidney ratio,[1]; 1 h p.i.,3.7 ± 0.3
same,Tumor-to-liver ratio,[1]; 1 h p.i.,99 ± 8
same,"Blood, accumulated activity",[1]; 4 h p.i.,≤ 0.10 % IA/g
same,"Bone, accumulated activity",[1]; 4 h p.i.,0.14 ± 0.04 % IA/g
same,"Heart, accumulated activity",[1]; 4 h p.i.,≤ 0.10 % IA/g
same,"Intestines, accumulated activity",[1]; 4 h p.i.,≤ 0.10 % IA/g
same,"Kidneys, accumulated activity",[1]; 4 h p.i.,3.5 ± 0.6 % IA/g
same,"Liver, accumulated activity",[1]; 4 h p.i.,0.31 ± 0.04 % IA/g
same,"Lung, accumulated activity",[1]; 4 h p.i.,≤ 0.10 % IA/g
same,"Muscle, accumulated activity",[1]; 4 h p.i.,≤ 0.10 % IA/g
same,"PC-3 PIP tumor, accumulated activity",[1]; 4 h p.i.,43 ± 10 % IA/g
same,"PC-3 flu tumor, accumulated activity",[1]; 4 h p.i.,0.11 ± 0.02 % IA/g
same,"Salivary glands, accumulated activity",[1]; 4 h p.i.,≤ 0.10 % IA/g
same,"Spleen, accumulated activity",[1]; 4 h p.i.,0.12 ± 0.05 % IA/g
same,"Stomach, accumulated activity",[1]; 4 h p.i.,≤ 0.10 % IA/g
same,Tumor-to-blood ratio,[1]; 4 h p.i.,2593 ± 825
same,Tumor-to-kidney ratio,[1]; 4 h p.i.,13 ± 4
same,Tumor-to-liver ratio,[1]; 4 h p.i.,142 ± 23
same,"Blood, accumulated activity",[1]; 24 h p.i.,≤ 0.10 % IA/g
same,"Bone, accumulated activity",[1]; 24 h p.i.,0.11 ± 0.01 % IA/g
same,"Heart, accumulated activity",[1]; 24 h p.i.,≤ 0.10 % IA/g
same,"Intestines, accumulated activity",[1]; 24 h p.i.,≤ 0.10 % IA/g
same,"Kidneys, accumulated activity",[1]; 24 h p.i.,1.2 ± 0.2 % IA/g
same,"Liver, accumulated activity",[1]; 24 h p.i.,0.39 ± 0.06 % IA/g
same,"Lung, accumulated activity",[1]; 24 h p.i.,≤ 0.10 % IA/g
same,"Muscle, accumulated activity",[1]; 24 h p.i.,≤ 0.10 % IA/g
same,"PC-3 PIP tumor, accumulated activity",[1]; 24 h p.i.,37 ± 9 % IA/g
same,"PC-3 flu tumor, accumulated activity",[1]; 24 h p.i.,0.11 ± 0.08 % IA/g
same,"Salivary glands, accumulated activity",[1]; 24 h p.i.,≤ 0.10 % IA/g
same,"Spleen, accumulated activity",[1]; 24 h p.i.,0.13 ± 0.04 % IA/g
same,"Stomach, accumulated activity",[1]; 24 h p.i.,≤ 0.10 % IA/g
same,Tumor-to-blood ratio,[1]; 24 h p.i.,4991 ± 3208
same,Tumor-to-kidney ratio,[1]; 24 h p.i.,33 ± 9
same,Tumor-to-liver ratio,[1]; 24 h p.i.,97 ± 20
same,"Blood, accumulated activity",[1]; 48 h p.i.,≤ 0.10 % IA/g
same,"Bone, accumulated activity",[1]; 48 h p.i.,0.12 ± 0.04 % IA/g
same,"Heart, accumulated activity",[1]; 48 h p.i.,≤ 0.10 % IA/g
same,"Intestines, accumulated activity",[1]; 48 h p.i.,≤ 0.10 % IA/g
same,"Kidneys, accumulated activity",[1]; 48 h p.i.,0.79 ± 0.13 % IA/g
same,"Liver, accumulated activity",[1]; 48 h p.i.,0.44 ± 0.16 % IA/g
same,"Lung, accumulated activity",[1]; 48 h p.i.,≤ 0.10 % IA/g
same,"Muscle, accumulated activity",[1]; 48 h p.i.,≤ 0.10 % IA/g
same,"PC-3 PIP tumor, accumulated activity",[1]; 48 h p.i.,31 ± 3 % IA/g
same,"PC-3 flu tumor, accumulated activity",[1]; 48 h p.i.,0.26 ± 0.4 % IA/g
same,"Salivary glands, accumulated activity",[1]; 48 h p.i.,≤ 0.10 % IA/g
same,"Spleen, accumulated activity",[1]; 48 h p.i.,0.13 ± 0.02 % IA/g
same,"Stomach, accumulated activity",[1]; 48 h p.i.,≤ 0.10 % IA/g
same,Tumor-to-blood ratio,[1]; 48 h p.i.,1716 ± 860
same,Tumor-to-kidney ratio,[1]; 48 h p.i.,37 ± 6
same,Tumor-to-liver ratio,[1]; 48 h p.i.,68 ± 15
same,Cell uptake,[2],< 1%
same,intact radioligand,[3],> 99%
same,Cell uptake,[4],63 ± 5%
same,Internalization (internalized fraction),[4],19 ± 3%
same,logD value,[5],≤ −3.9
same,pKd,[6],7.96
CC(C)Cc1ccc(C(C)C(=O)NC(CCN)C(=O)NCCCCC(NC(=O)CN2CCN(CC(=O)[O-])CCN(CC(=O)[O-])CCN(CC(=O)[O-])CC2)C(=O)NCC2CCC(C(=O)NC(Cc3ccc4ccccc4c3)C(=O)NCCCCC(NC(=O)NC(CCC(=O)O)C(=O)O)C(=O)O)CC2)cc1.[225Ac+3] (stereo not drawn) [[^225Ac]Ac-SibuDAB],"Blood, accumulated activity",[1]; 1 h p.i.,23 ± 2 % IA/g
same,"Bone, accumulated activity",[1]; 1 h p.i.,2.5 ± 0.2 % IA/g
same,"Heart, accumulated activity",[1]; 1 h p.i.,7.4 ± 0.9 % IA/g
same,"Intestines, accumulated activity",[1]; 1 h p.i.,2.6 ± 0.5 % IA/g
same,"Kidneys, accumulated activity",[1]; 1 h p.i.,18 ± 1 % IA/g
same,"Liver, accumulated activity",[1]; 1 h p.i.,4.4 ± 0.4 % IA/g
same,"Lung, accumulated activity",[1]; 1 h p.i.,19 ± 2 % IA/g
same,"Muscle, accumulated activity",[1]; 1 h p.i.,2.0 ± 0.4 % IA/g
same,"PC-3 PIP tumor, accumulated activity",[1]; 1 h p.i.,20 ± 2 % IA/g
same,"PC-3 flu tumor, accumulated activity",[1]; 1 h p.i.,4.2 ± 1.1 % IA/g
same,"Salivary glands, accumulated activity",[1]; 1 h p.i.,4.7 ± 0.4 % IA/g
same,"Spleen, accumulated activity",[1]; 1 h p.i.,3.5 ± 0.3 % IA/g
same,"Stomach, accumulated activity",[1]; 1 h p.i.,2.4 ± 0.4 % IA/g
same,Tumor-to-blood ratio,[1]; 1 h p.i.,0.9 ± 0.1
same,Tumor-to-kidney ratio,[1]; 1 h p.i.,1.2 ± 0.1
same,Tumor-to-liver ratio,[1]; 1 h p.i.,4.6 ± 0.5
same,"Blood, accumulated activity",[1]; 4 h p.i.,16 ± 2 % IA/g
same,"Bone, accumulated activity",[1]; 4 h p.i.,2.2 ± 0.5 % IA/g
same,"Heart, accumulated activity",[1]; 4 h p.i.,5.5 ± 0.7 % IA/g
same,"Intestines, accumulated activity",[1]; 4 h p.i.,2.2 ± 0.3 % IA/g
same,"Kidneys, accumulated activity",[1]; 4 h p.i.,19 ± 1 % IA/g
same,"Liver, accumulated activity",[1]; 4 h p.i.,4.0 ± 0.3 % IA/g
same,"Lung, accumulated activity",[1]; 4 h p.i.,10 ± 2 % IA/g
same,"Muscle, accumulated activity",[1]; 4 h p.i.,1.9 ± 0.2 % IA/g
same,"PC-3 PIP tumor, accumulated activity",[1]; 4 h p.i.,45 ± 5 % IA/g
same,"PC-3 flu tumor, accumulated activity",[1]; 4 h p.i.,4.1 ± 0.8 % IA/g
same,"Salivary glands, accumulated activity",[1]; 4 h p.i.,3.7 ± 0.2 % IA/g
same,"Spleen, accumulated activity",[1]; 4 h p.i.,3.0 ± 0.5 % IA/g
same,"Stomach, accumulated activity",[1]; 4 h p.i.,1.8 ± 0.3 % IA/g
same,Tumor-to-blood ratio,[1]; 4 h p.i.,2.9 ± 0.3
same,Tumor-to-kidney ratio,[1]; 4 h p.i.,2.3 ± 0.1
same,Tumor-to-liver ratio,[1]; 4 h p.i.,11 ± 1
same,"Blood, accumulated activity",[1]; 24 h p.i.,3.3 ± 0.7 % IA/g
same,"Bone, accumulated activity",[1]; 24 h p.i.,0.81 ± 0.10 % IA/g
same,"Heart, accumulated activity",[1]; 24 h p.i.,1.5 ± 0.4 % IA/g
same,"Intestines, accumulated activity",[1]; 24 h p.i.,0.85 ± 0.14 % IA/g
same,"Kidneys, accumulated activity",[1]; 24 h p.i.,18 ± 2 % IA/g
same,"Liver, accumulated activity",[1]; 24 h p.i.,3.3 ± 0.4 % IA/g
same,"Lung, accumulated activity",[1]; 24 h p.i.,2.9 ± 0.4 % IA/g
same,"Muscle, accumulated activity",[1]; 24 h p.i.,0.58 ± 0.06 % IA/g
same,"PC-3 PIP tumor, accumulated activity",[1]; 24 h p.i.,80 ± 8 % IA/g
same,"PC-3 flu tumor, accumulated activity",[1]; 24 h p.i.,2.4 ± 0.9 % IA/g
same,"Salivary glands, accumulated activity",[1]; 24 h p.i.,1.7 ± 0.2 % IA/g
same,"Spleen, accumulated activity",[1]; 24 h p.i.,2.3 ± 0.5 % IA/g
same,"Stomach, accumulated activity",[1]; 24 h p.i.,0.72 ± 0.14 % IA/g
same,Tumor-to-blood ratio,[1]; 24 h p.i.,25 ± 6
same,Tumor-to-kidney ratio,[1]; 24 h p.i.,4.7 ± 0.9
same,Tumor-to-liver ratio,[1]; 24 h p.i.,25 ± 5
same,"Blood, accumulated activity",[1]; 48 h p.i.,1.1 ± 0.2 % IA/g
same,"Bone, accumulated activity",[1]; 48 h p.i.,0.48 ± 0.09 % IA/g
same,"Heart, accumulated activity",[1]; 48 h p.i.,0.73 ± 0.17 % IA/g
same,"Intestines, accumulated activity",[1]; 48 h p.i.,0.40 ± 0.08 % IA/g
same,"Kidneys, accumulated activity",[1]; 48 h p.i.,8.6 ± 1.1 % IA/g
same,"Liver, accumulated activity",[1]; 48 h p.i.,2.7 ± 0.5 % IA/g
same,"Lung, accumulated activity",[1]; 48 h p.i.,1.3 ± 0.3 % IA/g
same,"Muscle, accumulated activity",[1]; 48 h p.i.,0.30 ± 0.11 % IA/g
same,"PC-3 PIP tumor, accumulated activity",[1]; 48 h p.i.,64 ± 11 % IA/g
same,"PC-3 flu tumor, accumulated activity",[1]; 48 h p.i.,1.5 ± 0.4 % IA/g
same,"Salivary glands, accumulated activity",[1]; 48 h p.i.,0.92 ± 0.19 % IA/g
same,"Spleen, accumulated activity",[1]; 48 h p.i.,1.9 ± 0.5 % IA/g
same,"Stomach, accumulated activity",[1]; 48 h p.i.,0.38 ± 0.04 % IA/g
same,Tumor-to-blood ratio,[1]; 48 h p.i.,62 ± 11
same,Tumor-to-kidney ratio,[1]; 48 h p.i.,7.4 ± 1.3
same,Tumor-to-liver ratio,[1]; 48 h p.i.,24 ± 4
same,"tumor uptake, higher than for [225Ac]Ac-PSMA-617","[1]; 48 h p.i., PC-3 PIP tumor",2 fold
same,Cell uptake,[2],< 1%
same,intact radioligand,[3],> 99%
same,Cell uptake,[4],59 ± 1%
same,Internalization (internalized fraction),[4],25 ± 5%
same,logD value,[5],−2.5 ± 0.1
same,pKd,[6],7.77
